Our source for the melting point values is patent publication US20100069380A1 (published 2010).

As usually defined, the melting point is the temperature, or range, at which the solid turns liquid.

SMILES strings stand for the structures.

With `Nc1ccc(Sc2c(O)c3c(=O)n(-c4ccccc4)c4ccccc4c3oc2=O)cc1`, the melting point was over 300 °C.
